The source of these data is patent US9458102B2 (priority 2011, dated 2016).

The Kd is a measure of binding affinity in units of concentration.

Like-named read-outs stand apart in the source and are kept apart here.

Series [1] concerns the target heteromeric rod CNG channels consisting of CNGA1 and CNGB1 subunits (Bos taurus, UniProt Q00194+Q28181). In words: biochemical. The format is cell-based. The note with it: for Kd: 2 mM cGMP. As for the experimental part:
Currents were elicited by a voltage step protocol from 0 to −50 to +50 mV (See FIG. 1) in the presence of 2 mM cGMP or 2 mM cGMP and compound (5 μM). Time scale is shown in the lower left-hand corner of the panel and FIG. 1, and the zero current level is indicated by the dotted line.
The solid line indicates the fit of the equation for block at a single binding site.
Time scale is shown in the lower left-hand corner of the panel and FIG. 1, and the zero current level is indicated by the dotted line. […] Solid line indicates the fit of the equation for block at a single binding site.
The effectiveness of retinal rod CNG channel current block by the disclosed compounds was tested in Xenopus oocyte preparations. Excised, inside-out patches pulled from oocytes expressed heteromeric rod CNG channels consisting of CNGA1 and CNGB1 subunits. […] CNG channel currents were elicited by a voltage step protocol to −50 and +50 mV (FIG. 1). The apparent KD value at each membrane potential was estimated first by determining I+B and I−B at steady state, where I+B is the current in the presence of blocker and I−B is current in the absence of blocker, for different blocker concentrations ([B]).
Ovaries were surgically removed from adult Xenopus laevis females (Xenopus Express; Brooksville, Fla.) anesthetized with ice-cold 0.1% tricaine and 0.1% NaHCO3 solution. Oocytes were chemically released from ovarian follicles in Ca^2+-free Barth's solution (88 mM NaCl, 1 mM KCl, 2.4 mM NaHCO3, 0.82 mM MgSO4, 7.5 mM Tris, 2.5 mM sodium pyruvate, 100 U/mL penicillin, and 100 μg/mL streptomycin, pH 7.4) containing 0.1 U/mL Liberase Blendzymes (Roche, Indianapolis, Ind.). Stages IV and V oocytes were visually sorted and stored in ND-96 (96 mM NaCl, 2 mM KCl, 1.8 mM CaCl2, 1 mM MgCl2, 5 mM HEPES, 2.5 mM sodium pyruvate, 100 U/mL penicillin, and 100 μg/mL streptomycin, pH 7.4) at 16° C. Oocytes were co-injected the following day with 33 ng of CNGA1 and 67 ng of CNGB1 cRNA […] synthesized from linearized pGEM-HE expression vectors containing the channel subunit cDNA sequence (Strassmaier T & Karpen J, J Med Chem 50, 4186-4194, (2007), incorporated by reference herein) using T7 mMESSAGE mMACHINE® (Ambion, Austin, Tex.). Injected oocytes were incubated at 18° C. the first day and 16° C. for the remaining days.
(§1) Recordings from inside-out excised patches were made 3-7 days after oocyte injection on an Axopatch 1D® amplifier (Axon Instruments, Foster City, Calif.). Briefly, oocyte vitelline membranes were removed in solution containing 200 mM K aspartate, 20 mM KCl, 1 mM MgCl2, 10 mM EGTA, 10 mM HEPES, pH 7.4. Oocytes were placed in a recording chamber in a solution containing 130 mM NaCl, 2 mM HEPES, 0.02 mM EDTA, 1 mM EGTA, pH 7.6, and borosilicate glass electrodes (1-3 MΩ) were filled with identical solution. Macroscopic currents were filtered at 1 kHz and sampled at 2 kHz using pCLAMP 8.0® software (Axon Instruments). Channels were either fully activated with 2 mM or partially activated with 50 and 100 μM cGMP. […] Glass syringes and Teflon tubing were used to minimize the binding of compounds to surfaces; concentrations passing through the perfusion system were verified by absorbance.

Another series addresses T1, chymotrypsin (Bos taurus, UniProt P00766).
T1 construct: purchased Worthington Biochemical Co
Nature of the series: In vitro hydrolysis by chymotrypsin. The format is in vitro ADME. As to the method: All enzymatic assays were performed with 50 μM compound in 0.1M phosphate buffer, pH 7.4, at 37° C. with stirring, unless otherwise noted. Butyrylcholinesterase stock solutions from human serum (Sigma, St. Louis, Mo.) were prepared at 100 U/mL in 0.1 M phosphate buffer, pH 7.4, and stored at −20° C. until use. Hydrolysis was monitored on an 8452A diode array spectrophotometer (Hewlett-Packard). Product peak wavelength absorption was immediately monitored upon addition of compound. Absorbances for complete hydrolysis were determined when there were no further detectable changes. […] All hydrolysis assays were performed in triplicate, and final rate constants are expressed as the mean±SD of the three individually determined rate constants. […] Activity of chymotrypsin (bovine, Worthington Biochemical Co., 190 μg/mL) was verified with 90 μM 4-nitrophenyl acetate in 0.1 M HEPES solution, pH 6.5, at 37° C. with stirring. Hydrolysis product was monitored at 404 nm for 10 min. Activity of proteinase K (from Engyodontium album, Sigma, 165 μg/mL) was verified with 16.5 mg/mL bovine serum albumin in 0.1 M phosphate buffer, pH 7.4, at 37° C. Samples were taken at time point increments up to 2 hours when the reaction reached completion. Samples were analyzed with 12% SDS-PAGE, stained with 0.1% Coomassie Blue.

Series [2] concerns heteromeric rod CNG channels consisting of CNGA1 and CNGB1 subunits. Nature of the series: CNG channel block at subsaturating cGMP (state dependence of block). The format is cell-based. Particulars: subsaturating cGMP (50 or 100 μM), +50 mV, normalized to KD at 2 mM cGMP.
Text: KD values at saturating cGMP were corrected for ion accumulation. Solid lines indicate simulations for exclusive closed channel blockers, using KD/KDsat=(1−Fsat)/(1−FsatI/Imax), where Fsat is the estimated fraction of open heteromeric rod channels in saturating cGMP assuming Fsat=0.3 (a), 0.56 (b), or 0.78 (c). The dotted line is a simulation for a blocker with no preference for state, or KD/KDsat=1. The dashed line is a simulation for an exclusive open channel blocker, using KD/KDsat=(I/Imax)^−1.
The solid lines in FIG. 4 marked a, b, and c represent the expected relationship between KD and the fraction of closed channels for an exclusive closed channel blocker. Each of a, b, and c uses one estimate for the probability of closed heteromeric retinal rod channels at saturating cGMP. The simulations are described in the following references: Matthews G et al, J Physiol 403, 389-405 (1988); Taylor W R & Baylor D A, J Physiol 483 567-582 (1995); and Bucossi G et al, Biophys J 72, 1165-1181 (1997), all of which are incorporated by reference herein. The dotted line represents a simulation of a blocker with no preference as to conformational of the channel. The dashed line represents a simulation for an exclusive open channel blocker.
as §1, with “absorbance. Current traces were digitally filtered at 300 Hz (Gaussian) and averaged using Clampfit 8.2® software. Currents in the absence of cGMP were subtracted from all currents analyzed. KD values were determined and expressed as the mean±SD.” for “absorbance.”

In series [3] the target is T2, Butyrylcholinesterase purified from human blood serum (Homo sapiens, UniProt P06276).
T2 construct: Butyrylcholinesterase purified from human blood serum; purchased Sigma; host or cells: purified from human blood serum
T2 sequence (P06276 29-602): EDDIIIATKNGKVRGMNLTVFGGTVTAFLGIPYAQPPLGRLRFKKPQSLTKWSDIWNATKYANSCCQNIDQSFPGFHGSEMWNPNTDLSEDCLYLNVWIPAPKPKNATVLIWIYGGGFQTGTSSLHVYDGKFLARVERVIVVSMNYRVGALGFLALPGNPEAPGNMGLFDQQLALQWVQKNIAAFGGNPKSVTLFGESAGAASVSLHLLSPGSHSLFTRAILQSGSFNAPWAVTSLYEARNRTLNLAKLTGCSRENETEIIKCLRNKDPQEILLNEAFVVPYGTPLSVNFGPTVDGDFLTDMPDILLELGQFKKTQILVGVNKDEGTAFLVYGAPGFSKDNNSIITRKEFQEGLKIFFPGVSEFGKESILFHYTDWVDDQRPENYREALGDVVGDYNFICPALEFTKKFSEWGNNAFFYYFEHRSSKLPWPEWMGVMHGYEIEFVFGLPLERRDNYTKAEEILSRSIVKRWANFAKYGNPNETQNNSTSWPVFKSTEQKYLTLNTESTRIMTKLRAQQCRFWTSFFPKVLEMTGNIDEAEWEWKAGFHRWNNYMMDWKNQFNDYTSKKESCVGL
In words: In vitro hydrolysis by serum cholinesterase (butyrylcholinesterase). The class given is in vitro ADME. Particulars: 50 μM compound, 0.1M phosphate buffer pH 7.4, 37° C.; mean±SD of triplicate. As for the experimental part:
Compound 1 is rapidly hydrolyzed by butyrylcholinesterase in the bloodstream. Butyrylcholinesterase purified from human blood serum was used to test the resistance of the disclosed compounds to hydrolysis.
All enzymatic assays were performed with 50 μM compound in 0.1M phosphate buffer, pH 7.4, at 37° C. with stirring, unless otherwise noted. Butyrylcholinesterase stock solutions from human serum (Sigma, St. Louis, Mo.) were prepared at 100 U/mL in 0.1 M phosphate buffer, pH 7.4, and stored at −20° C. until use. Hydrolysis was monitored on an 8452A diode array spectrophotometer (Hewlett-Packard). Product peak wavelength absorption was immediately monitored upon addition of compound. Absorbances for complete hydrolysis were determined when there were no further detectable changes. […] All hydrolysis assays were performed in triplicate, and final rate constants are expressed as the mean±SD of the three individually determined rate constants. In some experiments with compound 1, samples were taken at the beginning and end of the assay to verify the hydrolysis product and the completion of the reaction by HPLC. These samples were compared to compounds 1 and 3 on a C18 column eluted with 0.1% TFA in water/acetonitrile. Activity of chymotrypsin (bovine, Worthington Biochemical Co., 190 μg/mL) was verified with 90 μM 4-nitrophenyl acetate in 0.1 M HEPES solution, pH 6.5, at 37° C. with stirring. Hydrolysis product was monitored at 404 nm for 10 min. Activity of proteinase K (from Engyodontium album, Sigma, 165 μg/mL) was verified with 16.5 mg/mL bovine serum albumin in 0.1 M phosphate buffer, pH 7.4, at 37° C. Samples were taken at time point increments up to 2 hours when the reaction reached completion. Samples were analyzed with 12% SDS-PAGE, stained with 0.1% Coomassie Blue.

Setting [4] is: Table 2 (butyl series), +50 mV, read-out: KD(+50).
Setting [5] is: Table 2 (butyl series), −50 mV, read-out: KD(−50).
[6] abbreviates: octyl series table, +50 mV, read-out: KD(+50).
Setting [7] is: octyl series table, −50 mV, read-out: KD(−50).

heteromeric rod CNG channels consisting of CNGA1 and CNGB1 subunits (Bos taurus, UniProt Q00194+Q28181), sequence (Q00194 whole entry): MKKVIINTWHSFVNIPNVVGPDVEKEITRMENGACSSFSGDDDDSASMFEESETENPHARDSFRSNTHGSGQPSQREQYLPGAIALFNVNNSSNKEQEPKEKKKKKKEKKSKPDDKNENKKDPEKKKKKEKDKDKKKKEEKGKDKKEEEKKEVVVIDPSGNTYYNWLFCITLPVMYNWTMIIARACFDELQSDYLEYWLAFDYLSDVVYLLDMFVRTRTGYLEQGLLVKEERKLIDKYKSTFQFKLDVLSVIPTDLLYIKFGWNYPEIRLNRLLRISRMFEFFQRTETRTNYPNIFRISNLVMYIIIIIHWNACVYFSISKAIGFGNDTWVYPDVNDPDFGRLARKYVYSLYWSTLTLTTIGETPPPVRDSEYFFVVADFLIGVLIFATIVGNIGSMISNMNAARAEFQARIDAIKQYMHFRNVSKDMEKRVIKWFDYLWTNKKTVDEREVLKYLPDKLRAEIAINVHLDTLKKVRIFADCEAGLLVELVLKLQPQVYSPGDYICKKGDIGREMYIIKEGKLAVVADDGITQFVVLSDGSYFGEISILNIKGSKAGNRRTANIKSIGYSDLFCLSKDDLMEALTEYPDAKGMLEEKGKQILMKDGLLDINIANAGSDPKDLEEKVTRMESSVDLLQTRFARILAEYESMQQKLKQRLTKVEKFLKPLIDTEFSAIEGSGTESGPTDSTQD
heteromeric rod CNG channels consisting of CNGA1 and CNGB1 subunits (Bos taurus, UniProt Q00194+Q28181), sequence (Q28181 whole entry): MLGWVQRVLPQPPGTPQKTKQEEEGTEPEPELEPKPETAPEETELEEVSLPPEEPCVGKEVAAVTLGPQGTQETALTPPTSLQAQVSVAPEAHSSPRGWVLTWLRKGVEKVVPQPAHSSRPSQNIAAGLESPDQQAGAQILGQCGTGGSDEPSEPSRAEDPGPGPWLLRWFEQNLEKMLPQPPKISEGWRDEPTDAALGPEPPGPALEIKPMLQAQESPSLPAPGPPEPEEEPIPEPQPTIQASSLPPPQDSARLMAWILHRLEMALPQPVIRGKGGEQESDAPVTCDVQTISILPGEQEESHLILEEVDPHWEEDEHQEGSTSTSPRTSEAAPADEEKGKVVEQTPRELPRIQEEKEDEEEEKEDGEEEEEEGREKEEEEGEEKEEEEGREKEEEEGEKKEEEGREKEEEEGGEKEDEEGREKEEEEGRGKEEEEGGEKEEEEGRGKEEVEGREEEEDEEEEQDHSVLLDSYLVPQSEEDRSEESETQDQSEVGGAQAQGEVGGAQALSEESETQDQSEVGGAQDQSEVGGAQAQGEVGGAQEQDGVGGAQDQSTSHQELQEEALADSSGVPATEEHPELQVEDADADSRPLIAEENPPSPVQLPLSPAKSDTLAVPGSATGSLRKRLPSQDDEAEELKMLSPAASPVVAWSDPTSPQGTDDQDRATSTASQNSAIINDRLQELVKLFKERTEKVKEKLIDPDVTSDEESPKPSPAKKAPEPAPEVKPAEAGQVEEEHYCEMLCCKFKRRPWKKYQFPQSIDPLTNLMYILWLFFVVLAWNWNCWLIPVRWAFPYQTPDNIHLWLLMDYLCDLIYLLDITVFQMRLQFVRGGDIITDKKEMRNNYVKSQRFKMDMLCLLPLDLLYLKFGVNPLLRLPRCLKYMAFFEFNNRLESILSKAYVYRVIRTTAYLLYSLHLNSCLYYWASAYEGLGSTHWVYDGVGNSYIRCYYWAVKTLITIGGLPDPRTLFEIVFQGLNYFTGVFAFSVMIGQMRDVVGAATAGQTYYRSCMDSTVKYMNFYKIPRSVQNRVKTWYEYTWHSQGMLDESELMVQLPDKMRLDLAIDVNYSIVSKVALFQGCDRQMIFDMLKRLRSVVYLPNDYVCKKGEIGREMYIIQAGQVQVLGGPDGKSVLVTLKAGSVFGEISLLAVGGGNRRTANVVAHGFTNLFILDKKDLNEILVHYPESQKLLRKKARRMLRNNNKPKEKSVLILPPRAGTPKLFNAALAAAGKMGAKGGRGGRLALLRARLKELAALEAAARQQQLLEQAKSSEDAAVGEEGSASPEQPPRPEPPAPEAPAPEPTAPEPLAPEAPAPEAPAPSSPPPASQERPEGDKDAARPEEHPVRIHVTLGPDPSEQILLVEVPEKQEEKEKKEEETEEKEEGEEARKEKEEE

`COc1ccc([C@H]2Sc3ccccc3N(CCN(C)C)C(=O)[C@H]2OC(C)=O)cc1` (relative stereo) [l-cis-diltiazem, reference compound]: the “block of 2 mM cGMP-induced currents” value in series [1] is 74.2±5.8%.

With `CC(=O)Oc1ccc([N+](=O)[O-])cc1` [4-nitrophenyl acetate, reference compound], on chymotrypsin, the “hydrolysis products with chymotrypsin” value is “detected”.

Regarding `CCCCNc1ccc(C(=O)OCCN(C)C)cc1` [Compound 1, 2-(dimethylamino)ethyl 4-(butylamino)benzoate, reference compound], in series [2], the “state dependence of block (KD vs fraction of closed channels)” value is recorded as “better fit the results expected of a closed channel blocker”. Moreover, the Hydrolysis rate in series [3] was 132 ± 10 nmol/min/mg.

For `CCCCNc1ccc(C(=O)OCCN(C)C)cc1[N+](=O)[O-]` [Compound 12a, 2-(dimethylamino)ethyl 4-(butylamino)-3-nitrobenzoate], the Kd in series [1] (setting [4]) came out at 5500 ± 3200 nM; in series [1] (setting [5]) it was 19600 ± 14400 nM.

For the compound `CCCCNc1ccc(C(=O)OCCN(C)C)cc1OC` [Compound 12b, 2-(dimethylamino)ethyl 4-(butylamino)-3-methoxybenzoate], the Kd in series [1] (setting [4]) is 4300 ± 800 nM; in series [1] (setting [5]), 18300 ± 4400 nM.

For the compound `CCCCNc1ccc(C(=O)OCCN(C)C)cc1C` [Compound 12c, 2-(dimethylamino)ethyl 4-(butylamino)-3-methylbenzoate], the results for the Kd in series [1] (setting [4]) and in series [1] (setting [5]) were 7800 ± 3100 nM and 28100 ± 13400 nM, respectively.

Regarding `CCCCNc1ccc(C(=O)OCCN(C)C)cc1Cl` [Compound 12d, 2-(dimethylamino)ethyl 4-(butylamino)-3-chlorobenzoate], the “improvement of affinity / blocking potency compared to compound 1 (tetracaine)” value in series [1] turned out to be 1.6 fold. Moreover, the Kd in series [1] (setting [4]) was determined as 3000 ± 1000 nM; in series [1] (setting [5]), 12800 ± 4100 nM.

Turning to `CCCCCCCCNc1ccc(C(=O)OCCN(C)C)cc1[N+](=O)[O-]` [Compound 14a, 2-(dimethylamino)ethyl 4-(octylamino)-3-nitrobenzoate], the figures for the Kd in series [1] (setting [6]) and in series [1] (setting [7]) were 8000 ± 5800 nM and 12600 ± 7300 nM, respectively.

On to `CCCCCCCCNc1ccc(C(=O)OCCN(C)C)cc1OC` [Compound 14b, 2-(dimethylamino)ethyl 4-(octylamino)-3-methoxybenzoate], for which the Kd in series [1] (setting [6]) amounted to 1250 ± 1230 nM; in series [1] (setting [7]), 3000 ± 3400 nM.

Take `CCCCCCCCNc1ccc(C(=O)OCCN(C)C)cc1C` [Compound 14c, 2-(dimethylamino)ethyl 4-(octylamino)-3-methylbenzoate]: the values for the Kd in series [1] (setting [6]) and in series [1] (setting [7]) were 500 ± 420 nM and 1410 ± 840 nM, respectively.

For the compound `CCCCCCCCNc1ccc(C(=O)OCCN(C)C)cc1Cl` [Compound 14d, 2-(dimethylamino)ethyl 4-(octylamino)-3-chlorobenzoate], in series [1], the “improvement of affinity / blocking potency compared to compound 5” value is given as “approximately six-fold improvement”. In addition, the Kd in series [1] (setting [6]) stood at 140 ± 40 nM; in series [1] (setting [7]) it was 380 ± 160 nM.

For the compound `CCCCCCCCNc1ccc(C(=O)OCCN(C)C)cc1F` [Compound 14e, 2-(dimethylamino)ethyl 4-(octylamino)-3-fluorobenzoate], the Kd is 200 ± 100 nM in series [1] (setting [6]) and 750 ± 860 nM in series [1] (setting [7]).

For the compound `CCCCCCCCNc1ccc(C(=O)OCCN(C)C)cc1Br` [Compound 14f, 2-(dimethylamino)ethyl 4-(octylamino)-3-bromobenzoate], the Kd in series [1] (setting [6]) is 140 ± 30 nM; in series [1] (setting [7]), 240 ± 100 nM.

In the case of `CCCCCCCCNc1ccc(C(=O)OCCN(C)C)c(Cl)c1` [Compound 14g, 2-(dimethylamino)ethyl 4-(octylamino)-2-chlorobenzoate], the Kd in series [1] (setting [6]) was 100 ± 90 nM; in series [1] (setting [7]), 220 ± 130 nM.
